“And” between values parts separate entries of the source, which are not always exact repeats. Equal entries are not always repeated. Toxic doses and inconclusive results are not listed.

The assay concerns L1210 leukemia ip in BDF1 mice, survival T/C. Nature of the assay: NCI In Vivo Anticancer Drug Screen. Data for tumor model L1210 Leukemia (intraperitoneal) in B6D2F1 (BDF1) mice. The note with it: endpoint: mean survival time, higher = longer survival. The essentials: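 Each compound was tested against a transplantable tumor grown in mice. The endpoint was survival, with treated animals benchmarked against vehicle controls as a simple ratio.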

The mark [1] stands for this setting: dose: 100.0 mg/kg/injection, schedule: Q01DX001 (ip), vehicle: carboxymethylcellulose (CMC).
Setting [2] is: dose: 200.0 mg/kg/injection, schedule: Q01DX001 (ip), vehicle: carboxymethylcellulose (CMC).
The mark [3] stands for this setting: dose: 400.0 mg/kg/injection, schedule: Q01DX001 (ip), vehicle: carboxymethylcellulose (CMC).
The mark [4] stands for this setting: dose: 100.0 mg/kg/injection, schedule: Q04DX003 (ip), vehicle: saline.
The mark [5] stands for this setting: dose: 200.0 mg/kg/injection, schedule: Q04DX003 (ip), vehicle: saline.
[6] abbreviates: dose: 400.0 mg/kg/injection, schedule: Q04DX003 (ip), vehicle: saline.
Where [7] appears, read: dose: 12.5 mg/kg/injection, schedule: Q01DX009 (ip), vehicle: saline.
The mark [8] stands for this setting: dose: 25.0 mg/kg/injection, schedule: Q01DX009 (ip), vehicle: saline.
Setting [9] is: dose: 50.0 mg/kg/injection, schedule: Q01DX009 (ip), vehicle: saline.
[10] abbreviates: dose: 100.0 mg/kg/injection, schedule: Q01DX001 (ip), vehicle: saline.
[11] abbreviates: dose: 400.0 mg/kg/injection, schedule: Q01DX001 (ip), vehicle: saline.
Where [12] appears, read: dose: 100.0 mg/kg/injection, schedule: Q01DX009 (ip), vehicle: Klucel (hydroxypropylcellulose) (HPC).
Where [13] appears, read: dose: 100.0 mg/kg/injection, schedule: Q04DX003 (ip), vehicle: Klucel (hydroxypropylcellulose) (HPC).
Setting [14] is: dose: 200.0 mg/kg/injection, schedule: Q01DX009 (ip), vehicle: Klucel (hydroxypropylcellulose) (HPC).
Setting [15] is: dose: 200.0 mg/kg/injection, schedule: Q04DX003 (ip), vehicle: Klucel (hydroxypropylcellulose) (HPC).
The mark [16] stands for this setting: dose: 25.0 mg/kg/injection, schedule: Q04DX003 (ip), vehicle: saline.
Where [17] appears, read: dose: 50.0 mg/kg/injection, schedule: Q01DX001 (ip), vehicle: saline.
The mark [18] stands for this setting: dose: 50.0 mg/kg/injection, schedule: Q04DX003 (ip), vehicle: saline.
The mark [19] stands for this setting: dose: 200.0 mg/kg/injection, schedule: Q01DX001 (ip), vehicle: saline.

For the molecule `O=P(O)(O)OP(=O)(O)OP(=O)(O)OCC1OC(N2C=NC3C4NC=CN4CNC32)C(O)C1O` (configuration not stated), the T/C was 97 % of control (dose: 3.13 mg/kg/injection, schedule: Q03HX024 (ip), vehicle: saline); 93 % of control (dose: 6.25 mg/kg/injection, schedule: Q03HX024 (ip), vehicle: saline); 95 % of control (dose: 7.5 mg/kg/injection, schedule: Q03HX024 (ip), vehicle: saline); 93 % of control (dose: 15.0 mg/kg/injection, schedule: Q03HX024 (ip), vehicle: saline).

Regarding `Cc1ccc(NC(=O)Nc2ccccc2Cl)c(C)c1`, the T/C is 93 % of control under setting [1], 101 % of control under setting [2] and 98 % of control under setting [3].

In the case of `Cn1c(=O)oc2ccccc2c1=O`, the T/C is 98 % of control under setting [4], 97 % of control under setting [5] and 109 % of control under setting [6].

Consider `CC(C)c1ccc(/C=N/NC(=O)c2ccc[n+](C)c2)cc1`, for which the T/C was 94 % of control under setting [7]; 98 % of control under setting [8]; 112 % of control and 91 % of control under setting [9].

Take `NP(=O)(N1CC1)N1CC1`: the T/C was 110 % of control (dose: 1.0 mg/kg/injection, schedule: Q01DX001 (ip), vehicle: carboxymethylcellulose (CMC)); 116 % of control (dose: 1.0 mg/kg/injection, schedule: Q01DX015 (ip), vehicle: carboxymethylcellulose (CMC)); 124 % of control (dose: 2.0 mg/kg/injection, schedule: Q01DX001 (ip), vehicle: carboxymethylcellulose (CMC)); 110 % of control (dose: 4.0 mg/kg/injection, schedule: Q01DX001 (ip), vehicle: carboxymethylcellulose (CMC)); 150 % of control (dose: 15.0 mg/kg/injection, schedule: Q01DX001 (ip), vehicle: carboxymethylcellulose (CMC)); 186 % of control (dose: 30.0 mg/kg/injection, schedule: Q01DX001 (ip), vehicle: carboxymethylcellulose (CMC)).

In the case of `CCCCCC(/C=N/NC(=O)c1cccc2ccccc12)=C\c1ccccc1`, the T/C is, setting by setting: under setting [10], 94 % of control; under setting [11], 97 % of control.

On to `CC1(CCI)NC(=O)NC1=O` (configuration not stated), for which the T/C (dose: 100.0 mg/kg/injection, schedule: Q01DX001 (ip), vehicle: Klucel (hydroxypropylcellulose) (HPC)) is 98 % of control; the T/C (dose: 200.0 mg/kg/injection, schedule: Q01DX001 (ip), vehicle: Klucel (hydroxypropylcellulose) (HPC)) was 104 % of control; the T/C (dose: 400.0 mg/kg/injection, schedule: Q01DX001 (ip), vehicle: Klucel (hydroxypropylcellulose) (HPC)) was 111 % of control.

For `CN(C)c1ncc(C(N)=O)cn1`, the T/C under setting [12] is 97 % of control; the T/C under setting [13] was 100 % of control; the T/C under setting [14] is 108 % of control; the T/C under setting [15] was 96 % of control; the T/C (dose: 400.0 mg/kg/injection, schedule: Q04DX003 (ip), vehicle: Klucel (hydroxypropylcellulose) (HPC)) was 110 % of control.

As to `COc1cc([N+](=O)[O-])ccc1NC(=O)Oc1ccc(NC(C)=O)cc1`, the T/C runs as follows: under setting [12], 101 % of control; under setting [14], 106 % of control; (dose: 400.0 mg/kg/injection, schedule: Q01DX009 (ip), vehicle: Klucel (hydroxypropylcellulose) (HPC)) 91 % of control.

Take `N#CSCC(=O)c1ccccc1`: the T/C reads like this: (dose: 3.0 mg/kg/injection, schedule: Q01DX009 (ip), vehicle: Klucel (hydroxypropylcellulose) (HPC)) 104 % of control; (dose: 6.0 mg/kg/injection, schedule: Q01DX009 (ip), vehicle: Klucel (hydroxypropylcellulose) (HPC)) 101 % of control; (dose: 12.0 mg/kg/injection, schedule: Q01DX001 (ip), vehicle: saline) 105 % of control; (dose: 12.0 mg/kg/injection, schedule: Q01DX009 (ip), vehicle: Klucel (hydroxypropylcellulose) (HPC)) 107 % of control; (dose: 12.0 mg/kg/injection, schedule: Q04DX003 (ip), vehicle: saline) 104 % of control; (dose: 25.0 mg/kg/injection, schedule: Q01DX001 (ip), vehicle: saline) 113 % of control. For the same molecule, the T/C was 106 % of control under setting [16], 97 % of control under setting [17] and 101 % of control under setting [18].

In the case of `O=C1NC(=S)S/C1=C/c1ccco1`, the T/C (dose: 100.0 mg/kg/injection, schedule: Q04DX002 (ip), vehicle: Klucel (hydroxypropylcellulose) (HPC)) is 105 % of control; the T/C (dose: 200.0 mg/kg/injection, schedule: Q04DX002 (ip), vehicle: Klucel (hydroxypropylcellulose) (HPC)) is 98 % of control; the T/C (dose: 400.0 mg/kg/injection, schedule: Q04DX002 (ip), vehicle: Klucel (hydroxypropylcellulose) (HPC)) was 105 % of control.

Regarding `CC(C)(C)N(CSc1ccc(Cl)cc1)CSc1ccc(Cl)cc1`, the T/C was 104 % of control under setting [10] and 104 % of control under setting [19].

`C1CCc2nnnn2CC1`: the T/C reads like this: (dose: 6.25 mg/kg/injection, schedule: Q01DX009 (ip), vehicle: saline) 111 % of control; under setting [7], 101 % of control and 97 % of control; (dose: 12.5 mg/kg/injection, schedule: Q04DX003 (ip), vehicle: saline) 103 % of control; under setting [8], 109 % of control and 90 % of control; under setting [16], 101 % of control; under setting [9], 96 % of control. The T/C under setting [18] is 95 % of control and 106 % of control.

On to `COc1cc(C=C2c3ccccc3-c3ccccc32)ccc1O`, for which the T/C was 91 % of control under setting [10]; 99 % of control under setting [4]; 91 % of control under setting [19]; 91 % of control under setting [5]; 91 % of control under setting [11]; 91 % of control under setting [6].

In the case of `CCOC(=O)NCC(CCN(C)C)(c1cccc2ccccc12)C(C)C` (configuration not stated), the T/C (dose: 100.0 mg/kg/injection, schedule: Q01DX009 (ip), vehicle: saline) was 98 % of control; the T/C under setting [13] was 97 % of control; the T/C (dose: 200.0 mg/kg/injection, schedule: Q01DX009 (ip), vehicle: saline) was 107 % of control; the T/C under setting [15] is 97 % of control.

With `COc1cc2c(cc1OC)C(CCCCCCCC1NCCc3cc(OC)c(OC)cc31)NCC2` (configuration not stated), the T/C (dose: 0.25 mg/kg/injection, schedule: Q01DX015 (ip), vehicle: saline) is 97 % of control; the T/C (dose: 0.5 mg/kg/injection, schedule: Q01DX015 (ip), vehicle: saline) is 100 % of control; the T/C (dose: 1.0 mg/kg/injection, schedule: Q01DX015 (ip), vehicle: saline) was 103 % of control; the T/C (dose: 2.0 mg/kg/injection, schedule: Q01DX015 (ip), vehicle: saline) was 102 % of control; the T/C (dose: 4.0 mg/kg/injection, schedule: Q01DX015 (ip), vehicle: saline) is 106 % of control; the T/C (dose: 8.0 mg/kg/injection, schedule: Q01DX015 (ip), vehicle: carboxymethylcellulose (CMC)) is 91 % of control. For the same molecule, the T/C runs as follows: (dose: 16.0 mg/kg/injection, schedule: Q01DX015 (ip), vehicle: carboxymethylcellulose (CMC)) 91 % of control; under setting [17], 101 % of control; under setting [10], 100 % of control.

Regarding `O=C(O)c1ccc(O)cn1`, the T/C was 93 % of control under setting [1], 95 % of control under setting [2] and 95 % of control under setting [3].

On to `Cc1ccc(NC(=O)NCCCCCCNC(=O)Nc2ccc(C)c(Cl)c2)cc1Cl`, for which the T/C is, setting by setting: (dose: 100.0 mg/kg/injection, schedule: Q04DX003 (ip), vehicle: saline with Tween-80) 93 % of control; (dose: 200.0 mg/kg/injection, schedule: Q01DX009 (ip), vehicle: saline with Tween-80) 89 % of control; (dose: 200.0 mg/kg/injection, schedule: Q04DX003 (ip), vehicle: saline with Tween-80) 92 % of control; (dose: 400.0 mg/kg/injection, schedule: Q04DX003 (ip), vehicle: saline with Tween-80) 95 % of control.

As to `CCOC(=N)CCNS(=O)(=O)c1ccc(C)cc1`, the T/C under setting [10] is 104 % of control, the T/C under setting [19] was 98 % of control and the T/C under setting [11] was 115 % of control.

(Values after PubChem BioAssay AID248 (DTP/NCI, 2004).)
